The values below come from article PMC3506384 (Cancer chemotherapy and pharmacology, 2011).

Series [1] in a line: Serum anticonvulsant levels in group A patients. The format is in vivo, human. The note with it: all 3 patients in group A; at PK sampling on days 2 and 9 of cycle 1.
The next series in a line: Phase I dose escalation. The format is in vivo, human.
The conditions of series [2]: cited from earlier work.
The conditions of series [3]: co-administration of ketoconazole; cited from earlier work.
The conditions of series [4]: cited from earlier work. This is another data set of the same source.
The next series is described as follows: clinical. The note with it: human, plasma; for half-life: intravenous.
Series [5] in a line: Bortezomib plasma pharmacokinetics, non-compartmental, LC-MS/MS.
Setting [6] is: patients not taking concomitant HEIAs (group B).
The mark [7] stands for this setting: Day 2, bortezomib 1.0 mg/m^2, group A (taking HEIAs), N 1.
Setting [8] is: Day 2, bortezomib 1.0 mg/m^2, group B (not taking HEIAs), N 13, median (range).
Setting [9] is: Day 2, bortezomib 1.3 mg/m^2, group A (taking HEIAs), N 1.
[10] abbreviates: Day 2, bortezomib 1.3 mg/m^2, group B (not taking HEIAs), N 6, median (range).
The mark [11] stands for this setting: Day 2, bortezomib 1.5 mg/m^2, group A (taking HEIAs), N 1.
The mark [12] stands for this setting: Day 2, bortezomib 1.5 mg/m^2, group B (not taking HEIAs), N 1.
Where [13] appears, read: Day 9, bortezomib 1.0 mg/m^2, group A (taking HEIAs), N 1.
[14] abbreviates: Day 9, bortezomib 1.0 mg/m^2, group B (not taking HEIAs), N 13, median (range).
Where [15] appears, read: Day 9, bortezomib 1.3 mg/m^2, group A (taking HEIAs), N 1.
The mark [16] stands for this setting: Day 9, bortezomib 1.3 mg/m^2, group B (not taking HEIAs), N 6, median (range).

Read-outs that look alike come from different tables or passages of the source.

As for `O=C1NC(=O)C(c2ccccc2)(c2ccccc2)N1` [phenytoin], in series [1], the serum phenytoin levels result is given as “within the therapeutic range”.
On to `Cn1nnc2c(C(N)=O)ncn2c1=O` [temozolomide], for which the “recommended dose for phase 2 studies, temozolomide in the combination” value in the series “Phase I dose escalation” (patients not taking HEIAs, days 1–5, every 28 days) is listed as 200 mg/m^2. Also, the “MTD of temozolomide in combination with bortezomib” value in “Phase I dose escalation” (patients not taking HEIAs, days 1–5 of a 28-day cycle) worked out at 200 mg/m^2; in “Phase I dose escalation” (setting [6]) it was 200 mg/m^2/dose. The “individual MTD (single agent)” value in series [2] (temozolomide alone) was 200 mg/m^2.
One may read the half-life as how long it takes for the measured level to halve. Low values mean fast loss, high ones slow loss. For orientation: Cmax means the peak of the concentration-time curve. Regarding `CC(C)C[C@H](NC(=O)[C@H](Cc1ccccc1)NC(=O)c1cnccn1)B(O)O` [bortezomib], the “MTD of bortezomib in combination with temozolomide” value in the series “Phase I dose escalation” (patients not taking HEIAs, days 2, 5, 9, 12 of a 28-day cycle) is 1.3 mg/m^2; in the series “Phase I dose escalation” (setting [6]), 1.3 mg/m^2/dose. Moreover, the “recommended dose for phase 2 studies, bortezomib in the combination” value in “Phase I dose escalation” (patients not taking HEIAs, days 2, 5, 9 and 12, every 28 days) came out at 1.3 mg/m^2. In addition, the “individual MTD (single agent)” value in series [2] (bortezomib alone) is given as 1.6 mg/m^2. The “mean increase in systemic exposure of bortezomib with ketoconazole” value in series [3] was 35%. Also, the “MTD of single agent bortezomib” value is given as 1.7 mg/m^2 in series [4] (recurrent malignant glioma patients not taking HEIAs) and 2.5 mg/m^2 in series [4] (recurrent malignant glioma patients receiving concurrent HEIAs). The half-life in the series “clinical” (1 mg/m2) was 11.3 h; in the series “clinical” (1.3 mg/m2), 12.4 h; in the series “clinical” (1.5 mg/m2), 6.4 h. Also, the maximum concentration (Cmax) in the series “clinical” (iv, 1 mg/m^2) is 65.5 ng/mL. Moreover, the “AUC 0–∞” value in series [5] (setting [7]) is 20.8 µg·h/L; in series [5] (setting [8]), 33.6 (21–106) ug/l × h; in series [5] (setting [9]), 40.4 µg·h/L; in series [5] (setting [10]), 56.1 (34–97) ug/l × h; in series [5] (setting [11]), 30.6 µg·h/L; in series [5] (setting [12]), 137.4 µg·h/L. Also, the “AUC 0–∞” value was 30.7 µg·h/L in series [5] (setting [13]), 86.8 (32–216) ug/l × h in series [5] (setting [14]), 72.4 µg·h/L in series [5] (setting [15]) and 120.0 (78–206) ug/l × h in series [5] (setting [16]). Moreover, the CLsys is 115.7 L/h in series [5] (setting [7]); 46.6 (17–90) l/h in series [5] (setting [8]); 64.4 L/h in series [5] (setting [9]); 44.0 (21–81) l/h in series [5] (setting [10]); 94.8 L/h in series [5] (setting [11]); 16.0 L/h in series [5] (setting [12]). Further, the CLsys in series [5] (setting [13]) is 78.1 L/h; in series [5] (setting [14]), 20.7 (9–59) l/h; in series [5] (setting [15]) it was 35.9 L/h; in series [5] (setting [16]), 21.2 (10–33) l/h. Besides, the “Elimination T1/2” value in series [5] (setting [8]) is listed as 12.7 (2–21) h; in series [5] (setting [10]), 18.8 (13–26) h; in series [5] (setting [13]) it was 15.5 h; in series [5] (setting [15]), 11.1 h; in series [5] (setting [16]), 18.9 (12–41) h. For the same compound, the “CLsys on day 9 as percent of the CLsys on day 2” value in series [5] (median percent change, P < 0.01, paired Wilcoxon test, all patients with PK) is 51%. Besides, the “rapid initial decline of plasma concentration” value in series [5] (within the first few hours after the dose, both groups) is 100 fold.
